The target of one test is T1, Human HDAC1 (Homo sapiens, UniProt Q13547).
T1 construct: full length with C-terminal His-tag and C-terminal FLAG-tag; His (C); FLAG (C); host or cells: baculovirus expression system
In words: HDAC1 biochemical assay, AMC-labeled peptide substrate. Particulars: read-out: HDAC Isoform IC50 (nM) 1. The procedure, abridged:
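Two-step fluorogenic read: HDAC1 deacetylates 50 μM acetyl-lysine AMC peptide RHKK(Ac)AMC for 1 h at 30° C (pH 8.0, 1% DMSO, with compound), then developer digests the product for fluorescence at Ex/Em 360/460. Enzyme is full-length human, His/FLAG-tagged, insect-cell expressed, at 0.3 ng/ul.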

A further test has as its target T2, Human HDAC4 (Homo sapiens, UniProt P56524).
T2 construct: amino acids 627-1085 with N-terminal GST tag; GST (N); host or cells: baculovirus expression system
In words: HDAC4 biochemical assay, class IIa-specific substrate. To be noted: read-out: HDAC Isoform IC50 (nM) 4. The method, boiled down:
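Two-step fluorogenic read-out: deacetylated BOC-Lys(trifluoroacetyl)-AMC (50 μM) was digested by developer and measured at Ex/Em 360/460. Deacetylation by 0.004 ng/ul HDAC4 (aa 627-1085, N-terminal GST) ran 30 min at room temperature, pH 8.0 Tris buffer, 1 mg/mL BSA, 1% DMSO.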

The next test deals with T3, Human HDAC5 (Homo sapiens, UniProt Q9UQL6).
T3 construct: full length with C-terminal His tag, MW=51.1 kDa; His (C); host or cells: baculovirus expression system
Put plainly: HDAC5 biochemical assay, class IIa-specific substrate. Particulars: read-out: HDAC Isoform IC50 (nM) 5. The procedure, abridged: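 Two-step fluorogenic read-out: deacetylated trifluoroacetyl-lysine AMC substrate (50 μM) digested by developer, measured at Ex/Em 360/460. Deacetylation step: 0.05 ng/ul His-tagged full-length baculoviral enzyme with compound, 30 min, room temperature, pH 8.0 Tris with 1 mg/mL BSA and 1% DMSO.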

In the next test the target is T4, Recombinant human HDAC6 (Homo sapiens, UniProt Q9UBN7).
T4 construct: full length, MW=159 kDa; GST (N); host or cells: Sf9 insect cells (baculovirus)
T4 sequence (Q9UBN7 1-1215): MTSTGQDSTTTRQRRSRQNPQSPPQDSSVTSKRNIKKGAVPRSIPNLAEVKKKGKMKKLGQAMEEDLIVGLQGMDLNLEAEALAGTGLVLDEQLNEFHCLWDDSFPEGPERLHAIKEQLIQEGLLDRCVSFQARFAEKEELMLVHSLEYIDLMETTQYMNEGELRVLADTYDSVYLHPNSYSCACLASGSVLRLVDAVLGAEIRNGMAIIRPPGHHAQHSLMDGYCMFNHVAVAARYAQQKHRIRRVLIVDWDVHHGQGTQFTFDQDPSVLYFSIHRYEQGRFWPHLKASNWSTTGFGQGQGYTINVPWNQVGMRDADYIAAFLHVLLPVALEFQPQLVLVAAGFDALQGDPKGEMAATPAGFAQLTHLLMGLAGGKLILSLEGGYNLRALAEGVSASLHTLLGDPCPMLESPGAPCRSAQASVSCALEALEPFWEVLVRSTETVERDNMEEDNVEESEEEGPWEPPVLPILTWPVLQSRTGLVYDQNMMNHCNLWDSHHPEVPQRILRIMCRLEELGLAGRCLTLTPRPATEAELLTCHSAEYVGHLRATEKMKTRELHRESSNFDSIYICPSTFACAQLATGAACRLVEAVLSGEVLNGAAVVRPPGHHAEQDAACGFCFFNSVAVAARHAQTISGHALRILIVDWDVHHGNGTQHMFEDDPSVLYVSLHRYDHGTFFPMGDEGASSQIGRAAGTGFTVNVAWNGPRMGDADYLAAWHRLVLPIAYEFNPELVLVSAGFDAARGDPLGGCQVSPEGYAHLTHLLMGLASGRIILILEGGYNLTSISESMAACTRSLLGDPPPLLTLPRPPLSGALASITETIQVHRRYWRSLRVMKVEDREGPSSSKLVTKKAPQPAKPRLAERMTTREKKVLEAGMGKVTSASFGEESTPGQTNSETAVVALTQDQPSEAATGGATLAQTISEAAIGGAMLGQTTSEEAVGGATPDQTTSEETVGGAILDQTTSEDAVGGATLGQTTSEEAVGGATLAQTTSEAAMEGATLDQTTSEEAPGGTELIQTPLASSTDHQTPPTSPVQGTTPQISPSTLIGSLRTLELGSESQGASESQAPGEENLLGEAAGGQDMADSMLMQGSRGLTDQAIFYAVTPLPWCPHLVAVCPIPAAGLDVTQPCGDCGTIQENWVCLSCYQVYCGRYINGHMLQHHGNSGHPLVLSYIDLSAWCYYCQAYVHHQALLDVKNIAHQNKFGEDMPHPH
In words: HDAC6 biochemical assay, AMC-labeled peptide substrate. Particulars: HDAC6; read-out: HDAC Isoform IC50 (nM) 6. The method, boiled down: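 Two-step fluorogenic read-out: enzyme deacetylates 50 μM RHKK(Ac)AMC for 1 h at 30° C in pH 8.0 Tris buffer with BSA and 1% DMSO, then developer cleavage gives signal at Ex 360/Em 460. Enzyme: 0.3 ng/ul recombinant full-length human HDAC6, GST-tagged, Sf9-expressed.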

Another test concerns the target T5, Human HDAC7 (Homo sapiens, UniProt Q8WUI4).
T5 construct: (a.a. 518-end) with N-terminal GST tag; GST (N); host or cells: baculovirus expression system
T5 sequence (Q8WUI4 518-952 limits assumed): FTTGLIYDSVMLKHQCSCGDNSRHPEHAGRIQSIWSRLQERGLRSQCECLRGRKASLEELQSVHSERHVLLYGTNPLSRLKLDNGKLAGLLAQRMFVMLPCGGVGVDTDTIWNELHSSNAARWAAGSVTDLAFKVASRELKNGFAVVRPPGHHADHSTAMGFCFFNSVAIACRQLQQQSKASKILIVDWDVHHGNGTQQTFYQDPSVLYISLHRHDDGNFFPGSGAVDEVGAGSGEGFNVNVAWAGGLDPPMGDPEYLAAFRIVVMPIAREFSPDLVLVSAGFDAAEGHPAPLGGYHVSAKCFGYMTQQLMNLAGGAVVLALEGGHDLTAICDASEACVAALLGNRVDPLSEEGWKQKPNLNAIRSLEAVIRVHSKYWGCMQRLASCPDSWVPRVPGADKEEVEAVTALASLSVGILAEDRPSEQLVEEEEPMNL
Put plainly: HDAC7 biochemical assay, class IIa-specific substrate. Particulars: read-out: HDAC Isoform IC50 (nM) 7. The procedure, abridged: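 Two-step fluorogenic readout: class IIa-selective trifluoroacetyl-lysine AMC substrate (50 μM) deacetylated by N-terminal GST-HDAC7 fragment (0.001 ng/ul), then digested by developer, Ex/Em 360/460. Reaction: 30 min, room temperature, Tris-HCl pH 8.0, NaCl/KCl/MgCl2, 1 mg/mL BSA, 1% DMSO.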

The target of another test is T6, Human HDAC9 (Homo sapiens, UniProt Q9UKV0).
T6 construct: amino acids 604-1066 with C-terminal His tag; His (C); host or cells: baculovirus expression system
Put plainly: HDAC9 biochemical assay, class IIa-specific substrate. Particulars: read-out: HDAC Isoform IC50 (nM) 9. The procedure, abridged:
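HDAC9 residues 604-1066 (C-terminal His tag, baculovirus-expressed) at 0.06 ng/ul with 50 μM class IIa substrate Boc-Lys(trifluoroacetyl)-AMC in Tris-HCl pH 8.0 buffer with BSA and 1% DMSO. 30 min at room temperature, then developer added; fluorescence read at 360/460 nm Ex/Em.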

T6 sequence (Q9UKV0 604-1066 isoform Q9UKV0-5): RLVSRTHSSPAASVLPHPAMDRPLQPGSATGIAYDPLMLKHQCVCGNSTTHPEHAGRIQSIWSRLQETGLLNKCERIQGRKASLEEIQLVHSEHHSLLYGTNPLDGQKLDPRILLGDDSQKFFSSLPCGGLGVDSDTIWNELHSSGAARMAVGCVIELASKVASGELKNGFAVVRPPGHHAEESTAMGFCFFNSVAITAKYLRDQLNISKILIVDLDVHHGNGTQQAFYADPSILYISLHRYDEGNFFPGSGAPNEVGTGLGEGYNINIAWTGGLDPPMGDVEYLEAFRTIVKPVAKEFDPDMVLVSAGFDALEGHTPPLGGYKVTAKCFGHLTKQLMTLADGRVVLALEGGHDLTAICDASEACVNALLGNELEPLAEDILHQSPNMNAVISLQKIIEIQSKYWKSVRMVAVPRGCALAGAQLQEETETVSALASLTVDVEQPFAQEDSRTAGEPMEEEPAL
T1 sequence (Q13547 whole entry): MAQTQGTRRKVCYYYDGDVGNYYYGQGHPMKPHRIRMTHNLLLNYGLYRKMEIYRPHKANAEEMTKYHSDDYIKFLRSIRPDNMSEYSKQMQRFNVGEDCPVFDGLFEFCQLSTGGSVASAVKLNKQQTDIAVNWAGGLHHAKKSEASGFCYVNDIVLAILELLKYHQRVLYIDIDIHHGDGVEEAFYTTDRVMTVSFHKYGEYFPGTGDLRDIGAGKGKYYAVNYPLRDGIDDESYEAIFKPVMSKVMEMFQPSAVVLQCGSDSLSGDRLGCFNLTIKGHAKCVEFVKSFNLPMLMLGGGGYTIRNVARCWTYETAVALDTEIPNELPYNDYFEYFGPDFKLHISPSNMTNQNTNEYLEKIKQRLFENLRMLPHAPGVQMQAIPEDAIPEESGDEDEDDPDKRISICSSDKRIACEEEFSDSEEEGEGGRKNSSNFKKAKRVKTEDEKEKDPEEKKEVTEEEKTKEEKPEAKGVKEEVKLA
T2 sequence (P56524 627-1084 limits assumed): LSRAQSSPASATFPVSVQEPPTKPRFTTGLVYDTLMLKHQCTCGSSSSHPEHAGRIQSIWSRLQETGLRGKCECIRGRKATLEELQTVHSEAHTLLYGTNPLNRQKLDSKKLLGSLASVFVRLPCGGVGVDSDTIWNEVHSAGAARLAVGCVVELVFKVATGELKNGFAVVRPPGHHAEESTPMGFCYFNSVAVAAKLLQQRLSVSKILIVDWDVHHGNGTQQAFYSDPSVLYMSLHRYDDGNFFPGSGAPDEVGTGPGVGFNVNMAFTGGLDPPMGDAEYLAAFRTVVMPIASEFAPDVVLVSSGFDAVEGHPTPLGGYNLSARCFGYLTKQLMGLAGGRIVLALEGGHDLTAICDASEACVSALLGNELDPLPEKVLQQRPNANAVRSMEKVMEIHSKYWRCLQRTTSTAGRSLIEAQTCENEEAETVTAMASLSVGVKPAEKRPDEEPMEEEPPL
T3 sequence (Q9UQL6 656-1122 limits assumed): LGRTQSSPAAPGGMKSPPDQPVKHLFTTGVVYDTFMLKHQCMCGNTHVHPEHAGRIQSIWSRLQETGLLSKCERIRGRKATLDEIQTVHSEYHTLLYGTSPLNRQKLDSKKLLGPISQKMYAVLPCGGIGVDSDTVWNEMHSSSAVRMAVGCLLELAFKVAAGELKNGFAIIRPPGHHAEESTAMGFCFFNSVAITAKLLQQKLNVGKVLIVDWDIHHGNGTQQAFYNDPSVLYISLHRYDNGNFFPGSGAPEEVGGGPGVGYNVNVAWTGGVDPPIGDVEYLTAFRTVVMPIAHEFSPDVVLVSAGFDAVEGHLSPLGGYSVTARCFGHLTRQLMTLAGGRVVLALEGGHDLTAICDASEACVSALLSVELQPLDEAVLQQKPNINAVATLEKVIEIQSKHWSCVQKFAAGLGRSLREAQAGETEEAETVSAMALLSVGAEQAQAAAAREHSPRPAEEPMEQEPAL

Broadly, the IC50 is the midpoint of a concentration-inhibition curve. For the molecule `Cn1cc(-c2ccc(N(Cc3ccc(-c4noc(C(F)(F)F)n4)s3)c3cnccn3)nn2)cn1` [Example DO, 6-(1-Methyl-1H-pyrazol-4-yl)-N-(pyrazin-2-yl)-N-({5-[5-(trifluoromethyl)-1,2,4-oxadiazol-3-yl]thiophen-2-yl}methyl)pyridazin-3-amine], the IC50 on Human HDAC1 was at most 10000 nM; on Human HDAC4, at most 1000 nM; at Human HDAC5 it was at most 1000 nM; on Recombinant human HDAC6, at most 500 nM; on Human HDAC7, at most 1000 nM; on Human HDAC9, at most 10000 nM.
As for `O=C(O)c1ccc(N(Cc2ccc(-c3noc(C(F)(F)F)n3)s2)c2cnccn2)nn1` [Example DP, 6-[(Pyrazin-2-yl)({5-[5-(trifluoromethyl)-1,2,4-oxadiazol-3-yl]thiophen-2-yl}methyl)amino]pyridazine-3-carboxylic acid], the half-maximal inhibitory concentration (IC50) on Human HDAC1 was above 10000 nM; on Human HDAC4 it was at most 10000 nM; on Human HDAC5 it was at most 10000 nM; at Recombinant human HDAC6, at most 1000 nM; on Human HDAC7, at most 10000 nM; at Human HDAC9 it was at most 10000 nM.
Consider `FC(F)(F)c1nc(-c2ccc(CN(c3cnccn3)c3ccc4nccn4n3)s2)no1` [Example DT, N-{Imidazo[1,2-b]pyridazin-6-yl}-N-({5-[5-(trifluoromethyl)-1,2,4-oxadiazol-3-yl]thiophen-2-yl}methyl)pyrazin-2-amine], for which the IC50 at Human HDAC1 was above 10000 nM; on Human HDAC4 it was at most 1000 nM; at Human HDAC5, at most 500 nM; at Recombinant human HDAC6, at most 1000 nM; at Human HDAC7, at most 500 nM; on Human HDAC9, at most 1000 nM.
Turning to `FC(F)(F)c1nc(-c2ccc(CN(c3cnccn3)c3ccc4nncn4n3)s2)no1` [Example DU, N-{[1,2,4]Triazolo[4,3-b]pyridazin-6-yl}-N-({5-[5-(trifluoromethyl)-1,2,4-oxadiazol-3-yl]thiophen-2-yl}methyl)pyrazin-2-amine], the IC50 was above 10000 nM at Human HDAC1; at most 10000 nM on Human HDAC4; at most 10000 nM at Human HDAC5; at most 10000 nM at Recombinant human HDAC6; at most 1000 nM at Human HDAC7; at most 10000 nM on Human HDAC9.
As to `COc1cnnc(N(Cc2ccc(-c3noc(C(F)(F)F)n3)s2)c2cnccn2)c1` [Example DV, 5-Methoxy-N-(pyrazin-2-yl)-N-({5-[5-(trifluoromethyl)-1,2,4-oxadiazol-3-yl]thiophen-2-yl}methyl)pyridazin-3-amine], the IC50 is above 10000 nM at Human HDAC1; at most 10000 nM on Human HDAC4; at most 1000 nM on Human HDAC5; at most 10000 nM on Recombinant human HDAC6; at most 10000 nM at Human HDAC7; at most 10000 nM at Human HDAC9.
Consider `FC(F)(F)c1cnnc(N(Cc2ccc(-c3noc(C(F)(F)F)n3)s2)c2ccccn2)c1` [Example EG, N-(Pyridin-2-yl)-5-(trifluoromethyl)-N-({5-[5-(trifluoromethyl)-1,2,4-oxadiazol-3-yl]thiophen-2-yl}methyl)pyridazin-3-amine], for which the IC50 is above 10000 nM on Human HDAC1; at most 10000 nM on Human HDAC4; at most 10000 nM at Human HDAC5; at most 10000 nM at Recombinant human HDAC6; above 10000 nM at Human HDAC7; above 10000 nM on Human HDAC9.
Turning to `FC(F)(F)c1cnnc(N(Cc2ccc(-c3noc(C(F)(F)F)n3)s2)c2ncccc2N2CCOCC2)c1` [Example EH, N-[3-(Morpholin-4-yl)pyridin-2-yl]-5-(trifluoromethyl)-N-({5-[5-(trifluoromethyl)-1,2,4-oxadiazol-3-yl]thiophen-2-yl}methyl)pyridazin-3-amine], the IC50 at Human HDAC1 is above 10000 nM; on Human HDAC4, at most 10000 nM; at Human HDAC5, at most 10000 nM; at Recombinant human HDAC6 it was at most 10000 nM; on Human HDAC7, at most 10000 nM; at Human HDAC9, above 10000 nM.
Consider `FC(F)(F)c1cnnc(N(Cc2ccc(-c3noc(C(F)(F)F)n3)s2)c2cccnc2)c1` [Example EI, N-(Pyridin-3-yl)-5-(trifluoromethyl)-N-({5-[5-(trifluoromethyl)-1,2,4-oxadiazol-3-yl]thiophen-2-yl}methyl)pyridazin-3-amine], for which the IC50 at Human HDAC1 is above 10000 nM; on Human HDAC4 it was at most 10000 nM; on Human HDAC5, at most 1000 nM; at Recombinant human HDAC6 it was at most 10000 nM; at Human HDAC7 it was at most 10000 nM; on Human HDAC9, at most 10000 nM.
Consider `FC(F)(F)c1cnnc(N(Cc2ccc(-c3noc(C(F)(F)F)n3)s2)c2ccncc2)c1` [Example EJ, N-(Pyridin-4-yl)-5-(trifluoromethyl)-N-({5-[5-(trifluoromethyl)-1,2,4-oxadiazol-3-yl]thiophen-2-yl}methyl)pyridazin-3-amine], for which the IC50 on Human HDAC1 is above 10000 nM; on Human HDAC4 it was at most 10000 nM; on Human HDAC5, at most 10000 nM; at Recombinant human HDAC6, at most 10000 nM; on Human HDAC7, at most 10000 nM; at Human HDAC9, at most 10000 nM.
`FC(F)(F)c1cnnc(N(Cc2ccc(-c3noc(C(F)(F)F)n3)s2)c2ncccn2)c1` [Example EK, N-(Pyrimidin-2-yl)-5-(trifluoromethyl)-N-({5-[5-(trifluoromethyl)-1,2,4-oxadiazol-3-yl]thiophen-2-yl}methyl)pyridazin-3-amine]: the IC50 was above 10000 nM at Human HDAC1; above 10000 nM on Human HDAC4; at most 10000 nM on Human HDAC5; at most 10000 nM on Recombinant human HDAC6; above 10000 nM on Human HDAC7; above 10000 nM on Human HDAC9.
